Assay results as given in publication PMC10967730, “Identification and Functional Validation of Two Novel Antioxidant Peptides in Saffron” (Antioxidants, 2024).
Ends that are not written are not given here.

Columns and labels:
HepG2 cells = assay: MTT cell viability of HepG2 cells; conditions: for Effect on the viability of HepG2 cells: MTT, peptide 0.01–0.1 mg/mL
Description: The HepG2 cells were cultured in DMEM (Gibco, New York, NY, USA) containing 10% (v/v) fetal bovine serum (HyClone, Logan, UT, USA) and 1% (v/v) penicillin/streptomycin (Gibco, New York, NY, USA) at 37 °C and 5% CO2.
The cells were passaged every 2 days, with a passage ratio of 1:2 when the cells grew to more than 80% confluence. Then, the HepG2 cells were distributed in 96-well culture plates at a density of 2.5 × 10^4 cells per well. When the cells were cultured for 24 h in DMEM medium, the medium was removed and replaced with a new medium containing various concentrations of H2O2 (100 mM, 300 mM, 500 mM, 700 mM, 900 mM, and 1100 mM), and the control cells were grown in DMEM. MTT (3-(4,5-dimethylthiazol2-yl)-2,5-diphenyltetrazolium bromide; Sigma-Aldrich, St. Louis, MO, USA) was added to the wells and the cells were incubated for 2 h at 37 °C. Then, DMSO was added to the wells for dissolution of formazan granules produced by the live cells and the absorbance measurements were performed at 540 nm to ensure the half inhibitory concentration (IC50) of H2O2 [30].
The safe and harmless peptide concentrations were also determined by the above method. Different concentrations of peptides (0.01 mg/mL, 0.02 mg/mL, 0.04 mg/mL, 0.06 mg/mL, 0.08 mg/mL, and 0.1 mg/mL) also act on cells, and cell viability was detected by MTT to screen out the safe and harmless peptide concentrations.

[1] = cited from earlier work
Source text: Subsequently, the ABTS method was utilized to determine the total antioxidant activity of the stigma protein. […] We screened 289 saffron antioxidant peptides by comparing with the BIOPEP database. Among them, the saffron peptides with high abundance in the range from tetrapeptide to decapeptide were selected. […] It has been reported that hydrophobic a ...

Q: Which Cell viability decline (HepG2 cells; HepG2, MTT, H2O2 300 mM) does the source give for `OO` [H2O2] here?
A: about 50%

Q: With `N[C@@H](Cc1ccccc1)C(=O)O` [Phe] as the compound, how does the “Concentration at which ABTS scavenging activity is shown” value [1] read?
A: 10^−3 mol/L

Q: For DGGSDYLGK [DGGSDYLGK], which “Effect on the viability of HepG2 cells” value (HepG2 cells) is on record?
A: no significant effects

Q: For VDPYFNK [VDPYFNK], which “Effect on the viability of HepG2 cells” value (HepG2 cells) is on record?
A: no significant effects
